Assay results: patent US9416162B2, “Peptides having reduced toxicity that stimulate cholesterol efflux” (The Regents of the University of California, priority 2013, dated 2016)
Each block holds one molecule with its values, some of them ahead of it. Non-standard residues stand in square brackets, D forms with d. Residues, ends and D or L forms follow the SMILES beside them. No end group written: not given here. Cit = NC(=O)NCCC[C@H](N)C(=O)O

Assays:
[1] = Scaled Parameters = (Raw Parameters + 2.061)/4.484; cited from earlier work
C57Bl/6 mice = test: Safety and TG elevating effects after IP injection in C57Bl/6 mice (plasma CPK, ALT, AST, lipids); format: in vivo; conditions: for muscle toxicity (plasma CPK activity) / cytotoxic/toxic response (plasma CPK, ALT, AST): plasma 4 h after injection
Experimental: The high-dose cytotoxic response of ATI-5261 observed in rat, rabbit and cynomolgus monkey is additionally recapitulated in mice (FIG. 4). Male chow-fed C57bl/6 mice were injected intraperitonelly (IP) with 30 or 300 mg/kg of lipid-fee ATI-5261. Blood was collected via the retro-orbital plexus 4 h after peptide injection and plasma subsequently obtained for measurement of CPK (Panel A) and ALT and AST activities (Panel B, ALT left bars; AST, right bars). Values are means±SD, n=4 mice per group.
This example illustrates that aromatic phenylalanine residues associated with the non-polar surface of ATI-5261 contributed to the majority of the peptide toxicity (FIG. 5). […] Blood was collected via retro-orbital plexus 4 h after injection for isolation of plasma. Levels of plasma CPK (Panel A), ALT (panel B) and AST (Panel C) were determined as described in FIG. 1. Values are means±SD, n=4 mice per group.
All values (mg/dl) are means±SD, n=4, determined at 4 and 6 h post treatment with peptide.

ABCA1 [2] = biological target: T1, ABCA1 (Mus musculus, UniProt P41233); test: ABCA1-dependent [3H]cholesterol efflux from J774 macrophages with and without cAMP; format: cell-based; conditions: cAMP treated J774 cells; for efficiency of stimulating cholesterol efflux (concentration dependence): dose response; for Km for cholesterol efflux / peptide concentration at saturation in cholesterol efflux: increasing concentration of peptides, 4 h
T1 construct: treated (18 h) with a cAMP analog to induce ABCA1 protein expression; endogenous in cells; host or cells: J774 macrophages
Text: Suitable cholesterol efflux assays are described in, e.g., Bielicki, J. K and Oda, M. N., Biochemistry, 41:2089-2096 (2002); Jia et al., Biochem. Biophys. Res. Common., 297:206-213 (2002). In some embodiments, a polypeptide known to mediate cholesterol efflux (e.g., helix 9/10 of Apo A-I) is used to screen for additional mediators of cholesterol efflux in a cell based assay. For example, cell lines in which cholesterol efflux can be enhanced using a cAMP analog that up-regulates ABCA1 protein expression (e.g., J774 macrophages) can conveniently be used to assess the ability of a polypeptide of the present invention to mediate cholesterol efflux. The cells are incubated with labeled cholesterol (e.g., [^3H]cholesterol) under conditions appropriate for cholesterol uptake by the cells. Thus, cAMP or cAMP analogs (e.g., CPT-cAMP) are incubated with the cells for a suitable time before the initiation of cellular cholesterol efflux, i.e., prior to contacting the cells with a test polypeptide. Measurement of labeled cholesterol appearing in the medium is used to determine the cholesterol efflux mediating activity of the test polypeptide.
Aliphatic analogs of ATI-5261 lacking phenylalanine residues retained potent ABCA1 selective cholesterol efflux activity (FIG. 7). J774 macrophages were labeled (48 h) with [^3H]cholesterol and treated (18 h) with a cAMP analog to induce ABCA1 protein expression; cells incubated in the absence of cAMP (left bars) served as controls. […] Peptides were used at a concentration of 30 μg/ml, which was maximal for promoting cholesterol efflux activity. Panel B—Dependence of cholesterol efflux on the concentration of peptides. […] Results are expressed as the difference in cholesterol efflux (%/4 h) observed using cAMP treated vs. non-treated J774 cells. Values are means±SD, n=3.

ABCA1 [3] = biological target: T1, ABCA1; test: as above; format: cell-based; set-up: ABCA1-dependent cholesterol efflux: dose or concentration left out as unconfirmed; conditions: for ABCA1-dependent cholesterol efflux: J774 with/without cAMP, acceptors lipid-free, 4 h
[4] = male chow-fed C57Bl/6 mice, IP 300 mg/kg

T1 sequence (P41233 whole entry): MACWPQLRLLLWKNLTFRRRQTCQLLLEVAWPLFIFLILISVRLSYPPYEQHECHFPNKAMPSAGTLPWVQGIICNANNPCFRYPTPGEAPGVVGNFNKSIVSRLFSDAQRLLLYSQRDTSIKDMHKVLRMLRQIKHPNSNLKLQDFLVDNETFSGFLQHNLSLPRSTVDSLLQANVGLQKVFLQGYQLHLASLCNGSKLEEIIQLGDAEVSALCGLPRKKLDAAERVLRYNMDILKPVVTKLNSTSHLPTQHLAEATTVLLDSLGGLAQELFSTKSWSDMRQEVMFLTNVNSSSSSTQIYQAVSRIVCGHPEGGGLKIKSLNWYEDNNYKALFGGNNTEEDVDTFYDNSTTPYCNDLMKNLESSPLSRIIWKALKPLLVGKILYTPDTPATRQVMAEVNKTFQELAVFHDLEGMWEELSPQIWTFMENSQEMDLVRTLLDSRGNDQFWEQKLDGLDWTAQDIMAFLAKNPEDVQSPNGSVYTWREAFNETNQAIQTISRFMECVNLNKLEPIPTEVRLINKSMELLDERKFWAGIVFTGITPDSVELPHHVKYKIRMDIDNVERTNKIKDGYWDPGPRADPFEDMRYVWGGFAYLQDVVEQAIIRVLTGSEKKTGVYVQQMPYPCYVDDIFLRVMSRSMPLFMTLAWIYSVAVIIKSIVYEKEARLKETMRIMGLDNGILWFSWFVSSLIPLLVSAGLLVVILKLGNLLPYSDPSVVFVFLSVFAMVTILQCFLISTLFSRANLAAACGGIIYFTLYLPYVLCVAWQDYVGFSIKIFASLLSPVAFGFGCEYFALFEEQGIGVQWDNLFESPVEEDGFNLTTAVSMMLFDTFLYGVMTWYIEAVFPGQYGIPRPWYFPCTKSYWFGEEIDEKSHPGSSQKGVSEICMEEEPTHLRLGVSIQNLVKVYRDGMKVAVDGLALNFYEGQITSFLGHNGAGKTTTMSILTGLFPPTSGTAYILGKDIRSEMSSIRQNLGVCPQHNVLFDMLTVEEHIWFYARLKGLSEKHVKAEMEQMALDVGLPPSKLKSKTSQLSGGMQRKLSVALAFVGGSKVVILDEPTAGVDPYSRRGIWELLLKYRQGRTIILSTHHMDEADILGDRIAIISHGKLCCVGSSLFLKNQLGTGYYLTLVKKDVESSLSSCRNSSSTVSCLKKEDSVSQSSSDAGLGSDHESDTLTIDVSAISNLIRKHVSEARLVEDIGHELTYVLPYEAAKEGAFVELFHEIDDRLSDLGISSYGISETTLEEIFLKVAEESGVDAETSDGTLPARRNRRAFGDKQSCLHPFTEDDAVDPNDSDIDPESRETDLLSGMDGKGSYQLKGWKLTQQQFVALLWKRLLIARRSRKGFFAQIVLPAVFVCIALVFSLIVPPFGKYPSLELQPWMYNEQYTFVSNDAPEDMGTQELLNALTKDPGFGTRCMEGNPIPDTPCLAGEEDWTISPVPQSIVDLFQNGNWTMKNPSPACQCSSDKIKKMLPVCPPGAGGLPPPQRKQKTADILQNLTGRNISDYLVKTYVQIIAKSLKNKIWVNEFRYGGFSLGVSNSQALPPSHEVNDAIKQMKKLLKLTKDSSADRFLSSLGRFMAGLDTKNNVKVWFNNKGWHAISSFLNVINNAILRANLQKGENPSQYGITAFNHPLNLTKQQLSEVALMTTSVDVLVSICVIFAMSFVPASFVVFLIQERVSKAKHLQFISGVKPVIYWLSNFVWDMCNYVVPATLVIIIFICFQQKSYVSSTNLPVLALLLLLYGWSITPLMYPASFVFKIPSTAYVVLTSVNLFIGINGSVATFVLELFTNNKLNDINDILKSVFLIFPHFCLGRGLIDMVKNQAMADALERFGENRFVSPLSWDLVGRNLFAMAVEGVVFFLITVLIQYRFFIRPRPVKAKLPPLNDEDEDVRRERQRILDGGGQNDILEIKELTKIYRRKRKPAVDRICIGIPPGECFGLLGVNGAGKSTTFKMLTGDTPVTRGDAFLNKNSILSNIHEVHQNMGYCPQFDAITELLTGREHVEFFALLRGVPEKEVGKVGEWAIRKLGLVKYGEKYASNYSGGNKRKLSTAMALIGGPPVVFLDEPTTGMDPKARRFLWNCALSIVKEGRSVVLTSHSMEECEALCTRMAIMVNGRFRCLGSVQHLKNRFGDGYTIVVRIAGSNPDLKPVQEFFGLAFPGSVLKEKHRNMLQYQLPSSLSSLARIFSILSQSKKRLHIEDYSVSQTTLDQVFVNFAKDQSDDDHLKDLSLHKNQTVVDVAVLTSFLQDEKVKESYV

Molecule: C[C@H](N)C(=O)O [Alanine]
Hydrophobicity (scaled computational log(P)) [1]: 0.616

Molecule: N=C(N)NCCC[C@H](N)C(=O)O [Arginine]
Hydrophobicity (scaled computational log(P)) [1]: 0.000

Molecule: NC(=O)C[C@H](N)C(=O)O [Asparagine]
Hydrophobicity (scaled computational log(P)) [1]: 0.236

Molecule: N[C@@H](CCC(=O)O)C(=O)O [Glutamate]
Hydrophobicity (scaled computational log(P)) [1]: 0.043

Molecule: NCC(=O)O [Glycine]
Hydrophobicity (scaled computational log(P)) [1]: 0.501

Molecule: N[C@@H](Cc1c[nH]cn1)C(=O)O [Histidine]
Hydrophobicity (scaled computational log(P)) [1]: 0.165

Molecule: CC[C@H](C)[C@H](N)C(=O)O [Isoleucine]
Hydrophobicity (scaled computational log(P)) [1]: 0.943

Molecule: NCCCC[C@H](N)C(=O)O [Lysine]
Hydrophobicity (scaled computational log(P)) [1]: 0.283

Molecule: CSCC[C@H](N)C(=O)O [Methionine]
Hydrophobicity (scaled computational log(P)) [1]: 0.738

Molecule: N[C@@H](Cc1ccccc1)C(=O)O [Phenylalanine]
Hydrophobicity (scaled computational log(P)) [1]: 1.00

Molecule: O=C(O)[C@@H]1CCCN1 [Proline]
Hydrophobicity (scaled computational log(P)) [1]: 0.711

Molecule: CC[C@H](C)[C@H](NC(=O)[C@H](C)NC(=O)[C@H](C)NC(=O)[C@@H](NC(=O)[C@H](Cc1c[nH]c2ccccc12)NC(=O)[C@H](CCC(=O)O)NC(=O)[C@H](CCC(=O)O)NC(=O)[C@H](CC(C)C)NC(=O)[C@H](CCCCN)NC(=O)[C@H](CO)NC(=O)[C@H](CCCNC(N)=O)NC(=O)[C@@H](NC(=O)[C@@H](N)CCC(=O)O)C(C)C)[C@@H](C)CC)C(=O)N[C@@H](CCCNC(N)=O)C(=O)N[C@@H](CCC(=O)O)C(=O)N[C@H](C(=O)N[C@@H](C)C(=O)N[C@@H](CCC(=O)O)C(=O)N[C@@H](CCC(=O)O)C(=O)N[C@H](C(=O)N[C@@H](CC(C)C)C(=O)N[C@@H](C)C(=O)N[C@@H](CCCNC(=N)N)C(=O)N[C@@H](CC(C)C)C(=O)N[C@@H](CCCCN)C(=O)N[C@@H](CO)C(=O)O)[C@@H](C)CC)[C@@H](C)CC [T6991-2, EVC*SKLEEWIAAIC*EIAEEILARLKS (SEQ ID NO:3)] (H-EV[Cit]SKLEEWIAAI[Cit]EIAEEILARLKS-OH)
muscle toxicity (plasma CPK activity) (C57Bl/6 mice; [4]): little or no cytotoxic properties

Molecule: C[C@@H](O)[C@H](N)C(=O)O [Threonine]
Hydrophobicity (scaled computational log(P)) [1]: 0.450

Molecule: N[C@@H](Cc1c[nH]c2ccccc12)C(=O)O [Tryptophan]
Hydrophobicity (scaled computational log(P)) [1]: 0.878

Molecule: N[C@@H](Cc1ccc(O)cc1)C(=O)O [Tyrosine]
Hydrophobicity (scaled computational log(P)) [1]: 0.880

Molecule: CC(C)[C@H](N)C(=O)O [Valine]
Hydrophobicity (scaled computational log(P)) [1]: 0.825

Molecule: EARSKAEEWLAALLELAEELLARAKS [T5211-2]
cytotoxic/toxic response (plasma CPK, ALT, AST) (C57Bl/6 mice; [4]): little or no toxic responses

Molecule: EARSKAEEWLAALRELAEELLARAKS [T5505-12]
TG elevating effects (plasma TG) (C57Bl/6 mice; [4]): greatly ablated
cytotoxic/toxic response (plasma CPK, ALT, AST) (C57Bl/6 mice; [4]): low toxicity

Molecule: EVKSKLEEWFAAFKEFAEEFLAKLKS [T5594-5]
cytotoxic/toxic response (plasma CPK, ALT, AST) (C57Bl/6 mice; [4]): displayed cytotoxic and TG elevating activity

Molecule: EVNSKLEEWLAALNELAEELLARLKS [T5766-4]
muscle toxicity (plasma CPK activity) (C57Bl/6 mice; [4]): greatly reduced

Molecule: EVQSKLEEWLAALQELAEELLARLKS [T5766-3]
muscle toxicity (plasma CPK activity) (C57Bl/6 mice; [4]): greatly reduced

Molecule: EVRSKLEEWFAAFREFAEEFLARL [T5766-5]
cytotoxic/toxic response (plasma CPK, ALT, AST) (C57Bl/6 mice; [4]): reduce the toxic responses
muscle toxicity (plasma CPK activity) (C57Bl/6 mice; [4]): greatly reduced muscle toxicity

Molecule: EVRSKLEEWFAAFREFAEEFLARLNS [T5594-4]
muscle toxicity (plasma CPK activity) (C57Bl/6 mice; [4]): greatly reduced muscle toxicity

Molecule: EVRSKLEEWIAAIREIAEEILARLKS [T6991-1]
muscle toxicity (plasma CPK activity) (C57Bl/6 mice; [4]): little or no cytotoxic properties

Molecule: EVRSKLEEWLAALRELAEELAARLKS [T4883-7]
TG elevating effects (plasma TG) (C57Bl/6 mice; [4]): further reduced
cytotoxic/toxic response (plasma CPK, ALT, AST) (C57Bl/6 mice; [4]): further reduced cytotoxic response
muscle toxicity (plasma CPK activity) (C57Bl/6 mice; [4]): eliminate the residual muscle toxicity

Molecule: EVRSKLEEWLAALRELAEELLARAKS [T4883-6]
TG elevating effects (plasma TG) (C57Bl/6 mice; [4]): further reduced
cytotoxic/toxic response (plasma CPK, ALT, AST) (C57Bl/6 mice; [4]): further reduced cytotoxic response
muscle toxicity (plasma CPK activity) (C57Bl/6 mice; [4]): eliminate the residual muscle toxicity

Molecule: EVRSKLEEWLAALRELAEELLARLKS [T5055-13]
plasma TG, total and unesterified (free) cholesterol (FC) (C57Bl/6 mice; C57Bl/6 mice, 300 mg/kg, 4 and 6 h post treatment): greatly attenuated
muscle toxicity (plasma CPK activity) (C57Bl/6 mice; [4]): residual toxicity

Molecule: EVRSKLQEWFAAFREFAQEFLARLKS [T5554-1]
cytotoxic/toxic response (plasma CPK, ALT, AST) (C57Bl/6 mice; [4]): large increase in the toxic response

Molecule: T5505-9: ATI-5261 analog with L24A; W9L substitutions (EVRSKLEELLAALRELAEELLARAKS; synthetic amphipathic alpha-helix cholesterol efflux peptide T5505-9, LeuATI-5261 analog)
TG elevating effects (plasma TG) (C57Bl/6 mice; [4]): markedly reduced
plasma ALT and/or AST (general, hepatic toxicity) (C57Bl/6 mice; [4]): markedly reduced
muscle toxicity (plasma CPK activity) (C57Bl/6 mice; [4]): markedly reduced
efficiency of stimulating cholesterol efflux (concentration dependence) (ABCA1 [2]): high efficiency
Km for cholesterol efflux (ABCA1 [2]): 0.58 µg/mL
peptide concentration at saturation in cholesterol efflux (ABCA1 [2]): ~3 µg/mL

Molecule: T5554-4: E→Q analog carrying the favorable citrulline substitutions (EV[Cit]SKLQEWFAAFREFAEEFLARLKS)
cytotoxic/toxic response (plasma CPK, ALT, AST) (C57Bl/6 mice; [4]): retained strong toxic (CPK, ALT, and AST) and TG elevating responses

Molecule: T5554-5: E→Q analog carrying the favorable citrulline substitutions, net-charge −1 (EV[Cit]SKLQEWFAAF[Cit]EFAQEFLARLKS)
cytotoxic/toxic response (plasma CPK, ALT, AST) (C57Bl/6 mice; [4]): retained strong toxic (CPK, ALT, and AST) and TG elevating responses

efficiency of stimulating cholesterol efflux (concentration dependence) (ABCA1 [2]): highly efficient manner
Km for cholesterol efflux (ABCA1 [2]): low Km
peptide concentration at saturation in cholesterol efflux (ABCA1 [2]): 3 µg/mL
Molecule: T6275-5: citrulline form of LeuATI-5261 with single citrulline14→L substitution (EV[Cit]SKLEEWLAALLELAEELLARLKS)

Molecule: Y26 form of CS6253: CS6253 with a S26→Y substitution to facilitate labeling with 125I (SEQ ID NO:87) (EV[Cit]SKLEEWLAAL[Cit]ELAEELLARLKY)
ABCA1-dependent cholesterol efflux activity (ABCA1 [3]; J774 macrophages with/without cAMP, peptide 10 μg/ml): mediating high-levels of cholesterol efflux

ABCA1-dependent cholesterol efflux (ABCA1 [3]): High-levels of cholesterol efflux
Molecule: apoA-I: Apolipoprotein A-I, native apolipoprotein used lipid-free as cholesterol efflux acceptor

ABCA1-dependent cholesterol efflux (ABCA1 [3]): High-levels of cholesterol efflux
Molecule: apoE: Apolipoprotein E, native apolipoprotein used lipid-free as cholesterol efflux acceptor
